For orientation: residual activity means the signal under treatment as a percentage of the control signal.

Sequence of MST1R (human) (Q04912 whole entry, looked up): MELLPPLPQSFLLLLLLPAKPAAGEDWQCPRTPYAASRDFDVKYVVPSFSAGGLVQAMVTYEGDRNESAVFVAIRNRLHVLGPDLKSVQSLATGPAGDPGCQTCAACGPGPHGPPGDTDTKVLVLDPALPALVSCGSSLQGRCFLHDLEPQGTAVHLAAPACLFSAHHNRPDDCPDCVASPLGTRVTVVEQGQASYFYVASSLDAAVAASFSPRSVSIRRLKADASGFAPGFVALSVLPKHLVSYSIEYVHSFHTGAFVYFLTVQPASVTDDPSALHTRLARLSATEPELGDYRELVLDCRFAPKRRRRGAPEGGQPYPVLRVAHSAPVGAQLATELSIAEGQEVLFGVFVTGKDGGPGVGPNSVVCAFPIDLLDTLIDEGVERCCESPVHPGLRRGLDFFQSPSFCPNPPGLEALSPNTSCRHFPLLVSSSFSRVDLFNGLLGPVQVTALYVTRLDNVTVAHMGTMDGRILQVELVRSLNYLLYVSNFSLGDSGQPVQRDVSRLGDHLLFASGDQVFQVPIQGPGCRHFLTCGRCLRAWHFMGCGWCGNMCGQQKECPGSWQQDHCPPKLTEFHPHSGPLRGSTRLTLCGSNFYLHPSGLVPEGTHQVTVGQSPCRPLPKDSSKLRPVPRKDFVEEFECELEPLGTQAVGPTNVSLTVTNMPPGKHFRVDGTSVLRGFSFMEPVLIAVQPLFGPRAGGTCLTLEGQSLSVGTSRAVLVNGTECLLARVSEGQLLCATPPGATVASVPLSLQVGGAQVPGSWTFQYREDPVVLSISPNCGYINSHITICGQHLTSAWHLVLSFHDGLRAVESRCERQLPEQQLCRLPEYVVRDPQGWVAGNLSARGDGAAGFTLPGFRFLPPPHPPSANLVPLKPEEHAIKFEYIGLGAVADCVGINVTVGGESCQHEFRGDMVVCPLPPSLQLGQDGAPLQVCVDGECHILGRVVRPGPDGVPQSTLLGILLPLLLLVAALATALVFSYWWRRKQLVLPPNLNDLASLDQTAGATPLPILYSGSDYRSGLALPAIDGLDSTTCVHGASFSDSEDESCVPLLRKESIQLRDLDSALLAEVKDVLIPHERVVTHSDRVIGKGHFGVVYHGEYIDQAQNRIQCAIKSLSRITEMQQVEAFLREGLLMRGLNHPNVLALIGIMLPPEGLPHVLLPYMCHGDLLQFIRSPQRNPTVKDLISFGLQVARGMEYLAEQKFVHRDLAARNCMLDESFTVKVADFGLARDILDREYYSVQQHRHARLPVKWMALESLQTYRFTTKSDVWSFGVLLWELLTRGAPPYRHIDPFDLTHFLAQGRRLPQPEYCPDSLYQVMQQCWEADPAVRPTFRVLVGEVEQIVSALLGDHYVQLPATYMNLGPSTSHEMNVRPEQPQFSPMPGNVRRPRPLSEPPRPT
Sequence of PDGFRB (human) (P09619 whole entry, looked up): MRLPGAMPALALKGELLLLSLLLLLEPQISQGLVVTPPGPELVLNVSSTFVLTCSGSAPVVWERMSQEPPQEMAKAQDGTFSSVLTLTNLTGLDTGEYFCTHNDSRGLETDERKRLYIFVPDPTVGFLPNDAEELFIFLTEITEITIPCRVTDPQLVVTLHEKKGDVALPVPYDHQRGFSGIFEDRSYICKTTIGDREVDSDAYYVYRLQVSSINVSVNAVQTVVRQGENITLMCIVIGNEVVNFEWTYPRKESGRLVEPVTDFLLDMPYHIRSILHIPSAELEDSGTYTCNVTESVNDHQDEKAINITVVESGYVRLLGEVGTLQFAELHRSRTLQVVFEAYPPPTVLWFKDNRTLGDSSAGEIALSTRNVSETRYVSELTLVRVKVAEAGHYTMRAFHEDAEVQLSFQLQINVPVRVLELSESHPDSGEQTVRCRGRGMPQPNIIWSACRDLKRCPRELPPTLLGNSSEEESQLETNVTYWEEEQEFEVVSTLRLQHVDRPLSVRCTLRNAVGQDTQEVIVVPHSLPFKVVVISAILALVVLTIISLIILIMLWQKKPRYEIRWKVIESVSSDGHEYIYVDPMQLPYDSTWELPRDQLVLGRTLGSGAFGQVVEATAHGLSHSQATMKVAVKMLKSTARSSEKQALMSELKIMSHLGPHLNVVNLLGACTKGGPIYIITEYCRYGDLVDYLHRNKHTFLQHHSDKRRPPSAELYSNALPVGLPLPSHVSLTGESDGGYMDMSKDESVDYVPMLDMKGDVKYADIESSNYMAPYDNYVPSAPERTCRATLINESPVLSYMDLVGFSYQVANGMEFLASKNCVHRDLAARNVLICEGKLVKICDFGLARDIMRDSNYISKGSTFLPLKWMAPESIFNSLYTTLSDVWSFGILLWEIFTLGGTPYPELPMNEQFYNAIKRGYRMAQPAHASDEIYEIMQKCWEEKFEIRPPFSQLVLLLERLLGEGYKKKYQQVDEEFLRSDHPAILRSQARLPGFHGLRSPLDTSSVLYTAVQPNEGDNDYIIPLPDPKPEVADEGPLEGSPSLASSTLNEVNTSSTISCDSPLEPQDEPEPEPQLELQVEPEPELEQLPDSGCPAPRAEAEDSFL

One assay addresses RPS6KA1 KD1 KD2 (human) (UniProt Q15418). Kind of assay: radiometric filter-binding kinase assay, Kinase HotSpot. To be noted: compound 0.5 µM; ATP 10 µM.
With `O=C(Nc1cccc(Nc2cc(Nc3cccc(C(F)(F)F)c3)ncn2)c1)C1CC1`, the residual activity was found to be 95.1%.

Take `Cc1nc2cc3nc(-c4cccs4)cnc3cc2n1C`: the residual activity amounted to 99.4%.

For the molecule `Oc1ccc(Nc2nc(-c3ccc(Cl)cc3)cs2)cc1`, the residual activity came out at 97.7%.

A further assay concerns the target PDGFRB (human) (UniProt P09619). The description is as above. To be noted: compound 0.5 µM; ATP 10 µM.
`O=C(Nc1cccc(Nc2cc(Nc3cccc(C(F)(F)F)c3)ncn2)c1)C1CC1`: the residual activity was determined as 101%.

In the case of `Cc1nc2cc3nc(-c4cccs4)cnc3cc2n1C`, the residual activity came out at 63.3%.

As for `Oc1ccc(Nc2nc(-c3ccc(Cl)cc3)cs2)cc1`, the residual activity came out at 107%.

The target in the next assay is EPHB3 (human) (UniProt P54753). Described as above. To be noted: compound 0.5 µM; ATP 10 µM.
As for `O=C(Nc1cccc(Nc2cc(Nc3cccc(C(F)(F)F)c3)ncn2)c1)C1CC1`, the residual activity stood at 87.9%.

In the case of `Cc1nc2cc3nc(-c4cccs4)cnc3cc2n1C`, the residual activity is 101%.

For the molecule `Oc1ccc(Nc2nc(-c3ccc(Cl)cc3)cs2)cc1`, the residual activity came out at 103%.

Another assay has as its target TEC (human) (UniProt P42680). The assay is described as above. Particulars: compound 0.5 µM; ATP 10 µM.
Regarding `O=C(Nc1cccc(Nc2cc(Nc3cccc(C(F)(F)F)c3)ncn2)c1)C1CC1`, the residual activity was determined as 115%.

`Cc1nc2cc3nc(-c4cccs4)cnc3cc2n1C`: the residual activity is 158%.

As to `Oc1ccc(Nc2nc(-c3ccc(Cl)cc3)cs2)cc1`, the residual activity turned out to be 120%.

For a further assay, the target named is JAK1 JH1 catalytic (human) (UniProt P23458). Described as above. To be noted: compound 0.5 µM; ATP 10 µM.
`O=C(Nc1cccc(Nc2cc(Nc3cccc(C(F)(F)F)c3)ncn2)c1)C1CC1`: the residual activity came out at 103%.

With `Cc1nc2cc3nc(-c4cccs4)cnc3cc2n1C`, the residual activity came to 105%.

Regarding `Oc1ccc(Nc2nc(-c3ccc(Cl)cc3)cs2)cc1`, the residual activity is 97.1%.

The next assay deals with PAK3 (human) (UniProt O75914). The description is as above. To be noted: compound 0.5 µM; ATP 10 µM.
Sequence of PAK3 (human) (O75914 whole entry, looked up): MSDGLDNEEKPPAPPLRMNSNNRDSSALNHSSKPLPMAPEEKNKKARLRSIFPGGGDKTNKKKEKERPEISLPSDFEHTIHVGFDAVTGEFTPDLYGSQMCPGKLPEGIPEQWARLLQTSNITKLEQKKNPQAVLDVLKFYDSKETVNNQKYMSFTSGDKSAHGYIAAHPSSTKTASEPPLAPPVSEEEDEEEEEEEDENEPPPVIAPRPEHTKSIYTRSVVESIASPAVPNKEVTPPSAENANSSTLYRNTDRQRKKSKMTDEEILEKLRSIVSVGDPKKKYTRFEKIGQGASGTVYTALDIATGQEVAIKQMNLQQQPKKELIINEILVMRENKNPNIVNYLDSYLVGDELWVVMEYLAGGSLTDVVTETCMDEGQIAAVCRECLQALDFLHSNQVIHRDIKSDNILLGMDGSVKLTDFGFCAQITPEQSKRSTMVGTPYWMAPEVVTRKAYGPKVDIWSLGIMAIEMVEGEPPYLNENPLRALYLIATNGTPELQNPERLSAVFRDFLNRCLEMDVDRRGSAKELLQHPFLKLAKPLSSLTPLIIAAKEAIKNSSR
Regarding `O=C(Nc1cccc(Nc2cc(Nc3cccc(C(F)(F)F)c3)ncn2)c1)C1CC1`, the residual activity worked out at 101%.

Take `Cc1nc2cc3nc(-c4cccs4)cnc3cc2n1C`: the residual activity amounted to 98.8%.

In the case of `Oc1ccc(Nc2nc(-c3ccc(Cl)cc3)cs2)cc1`, the residual activity was determined as 124%.

A further assay has as its target SRMS (human) (UniProt Q9H3Y6). Described as above. Particulars: compound 0.5 µM; ATP 10 µM.
For the molecule `O=C(Nc1cccc(Nc2cc(Nc3cccc(C(F)(F)F)c3)ncn2)c1)C1CC1`, the residual activity amounted to 95.2%.

Take `Cc1nc2cc3nc(-c4cccs4)cnc3cc2n1C`: the residual activity was determined as 95.4%.

On to `Oc1ccc(Nc2nc(-c3ccc(Cl)cc3)cs2)cc1`, for which the residual activity is 106%.

Another assay has as its target HIPK2 (human) (UniProt Q9H2X6). The assay is described as above. Particulars: compound 0.5 µM; ATP 10 µM.
For the molecule `O=C(Nc1cccc(Nc2cc(Nc3cccc(C(F)(F)F)c3)ncn2)c1)C1CC1`, the residual activity came to 107%.

For `Cc1nc2cc3nc(-c4cccs4)cnc3cc2n1C`, the residual activity worked out at 107%.

As to `Oc1ccc(Nc2nc(-c3ccc(Cl)cc3)cs2)cc1`, the residual activity was 90.9%.

Another assay concerns the target CAMK4 (human) (UniProt Q16566). Described as above. To be noted: compound 0.5 µM; ATP 10 µM.
For the molecule `O=C(Nc1cccc(Nc2cc(Nc3cccc(C(F)(F)F)c3)ncn2)c1)C1CC1`, the residual activity came out at 98.5%.

With `Cc1nc2cc3nc(-c4cccs4)cnc3cc2n1C`, the residual activity amounted to 94.7%.

Turning to `Oc1ccc(Nc2nc(-c3ccc(Cl)cc3)cs2)cc1`, the residual activity was determined as 99.7%.

In another assay the target is CAMK2A (human) (UniProt Q9UQM7). Described as above. Particulars: compound 0.5 µM; ATP 10 µM.
Sequence of CAMK2A (human) (Q9UQM7 whole entry, looked up): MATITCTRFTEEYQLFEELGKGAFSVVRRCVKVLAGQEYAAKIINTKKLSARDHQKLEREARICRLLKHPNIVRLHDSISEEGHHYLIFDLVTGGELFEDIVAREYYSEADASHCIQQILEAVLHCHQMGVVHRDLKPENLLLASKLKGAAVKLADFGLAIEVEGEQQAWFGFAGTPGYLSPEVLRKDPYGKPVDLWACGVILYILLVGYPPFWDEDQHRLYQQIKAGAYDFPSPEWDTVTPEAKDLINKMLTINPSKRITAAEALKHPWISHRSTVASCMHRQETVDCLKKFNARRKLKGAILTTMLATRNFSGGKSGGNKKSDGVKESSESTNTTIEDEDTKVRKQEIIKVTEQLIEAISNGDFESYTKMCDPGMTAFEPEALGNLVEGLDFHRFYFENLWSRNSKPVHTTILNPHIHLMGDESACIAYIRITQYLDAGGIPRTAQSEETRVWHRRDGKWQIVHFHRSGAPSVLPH
In the case of `O=C(Nc1cccc(Nc2cc(Nc3cccc(C(F)(F)F)c3)ncn2)c1)C1CC1`, the residual activity turned out to be 104%.

As to `Cc1nc2cc3nc(-c4cccs4)cnc3cc2n1C`, the residual activity came to 105%.

Turning to `Oc1ccc(Nc2nc(-c3ccc(Cl)cc3)cs2)cc1`, the residual activity was 106%.

The target in another assay is PRKCA (human) (UniProt P17252). The assay is described as above. Particulars: compound 0.5 µM; ATP 10 µM.
As for `O=C(Nc1cccc(Nc2cc(Nc3cccc(C(F)(F)F)c3)ncn2)c1)C1CC1`, the residual activity stood at 101%.

For `Cc1nc2cc3nc(-c4cccs4)cnc3cc2n1C`, the residual activity turned out to be 74.7%.

As to `Oc1ccc(Nc2nc(-c3ccc(Cl)cc3)cs2)cc1`, the residual activity turned out to be 113%.

In another assay the target is CAMK2D (human) (UniProt Q13557). The description is as above. To be noted: compound 0.5 µM; ATP 10 µM.
`O=C(Nc1cccc(Nc2cc(Nc3cccc(C(F)(F)F)c3)ncn2)c1)C1CC1`: the residual activity amounted to 101%.

For the molecule `Cc1nc2cc3nc(-c4cccs4)cnc3cc2n1C`, the residual activity amounted to 100%.

For `Oc1ccc(Nc2nc(-c3ccc(Cl)cc3)cs2)cc1`, the residual activity worked out at 98.8%.

For a further assay, the target named is TNK2 (human) (UniProt Q07912). The assay is described as above. To be noted: compound 0.5 µM; ATP 10 µM.
Sequence of TNK2 (human) (Q07912 whole entry, looked up): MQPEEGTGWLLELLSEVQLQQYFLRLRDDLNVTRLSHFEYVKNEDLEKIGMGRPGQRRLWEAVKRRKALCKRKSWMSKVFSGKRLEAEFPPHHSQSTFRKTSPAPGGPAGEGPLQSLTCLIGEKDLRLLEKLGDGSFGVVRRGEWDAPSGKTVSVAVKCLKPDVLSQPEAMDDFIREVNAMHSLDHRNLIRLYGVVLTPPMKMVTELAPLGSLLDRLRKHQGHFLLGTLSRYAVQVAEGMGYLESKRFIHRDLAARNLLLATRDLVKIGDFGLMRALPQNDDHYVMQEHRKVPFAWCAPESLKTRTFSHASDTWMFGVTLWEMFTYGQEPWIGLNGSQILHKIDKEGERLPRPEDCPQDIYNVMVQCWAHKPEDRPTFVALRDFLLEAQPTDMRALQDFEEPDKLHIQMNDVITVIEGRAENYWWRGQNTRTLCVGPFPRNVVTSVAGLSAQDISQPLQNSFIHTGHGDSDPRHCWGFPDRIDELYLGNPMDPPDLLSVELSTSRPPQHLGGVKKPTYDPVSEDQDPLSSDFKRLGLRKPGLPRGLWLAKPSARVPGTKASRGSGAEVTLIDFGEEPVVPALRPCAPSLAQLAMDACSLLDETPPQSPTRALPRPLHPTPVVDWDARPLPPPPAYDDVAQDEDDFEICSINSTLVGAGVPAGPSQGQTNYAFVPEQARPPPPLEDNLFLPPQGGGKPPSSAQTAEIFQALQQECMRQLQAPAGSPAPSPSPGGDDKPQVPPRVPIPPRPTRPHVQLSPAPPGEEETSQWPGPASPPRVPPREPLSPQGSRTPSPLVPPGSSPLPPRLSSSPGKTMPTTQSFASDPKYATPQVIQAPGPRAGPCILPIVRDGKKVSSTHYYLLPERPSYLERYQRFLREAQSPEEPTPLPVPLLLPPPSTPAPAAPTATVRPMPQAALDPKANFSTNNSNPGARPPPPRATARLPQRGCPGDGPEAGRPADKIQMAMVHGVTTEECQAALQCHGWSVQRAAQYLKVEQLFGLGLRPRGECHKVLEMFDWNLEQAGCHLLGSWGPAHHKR
As for `O=C(Nc1cccc(Nc2cc(Nc3cccc(C(F)(F)F)c3)ncn2)c1)C1CC1`, the residual activity came out at 98.7%.

Consider `Cc1nc2cc3nc(-c4cccs4)cnc3cc2n1C`, for which the residual activity came out at 100%.

Regarding `Oc1ccc(Nc2nc(-c3ccc(Cl)cc3)cs2)cc1`, the residual activity turned out to be 103%.

The target in the next assay is CLK3 (human) (UniProt P49761). Described as above. Particulars: compound 0.5 µM; ATP 10 µM.
Sequence of CLK3 (human) (P49761 whole entry, looked up): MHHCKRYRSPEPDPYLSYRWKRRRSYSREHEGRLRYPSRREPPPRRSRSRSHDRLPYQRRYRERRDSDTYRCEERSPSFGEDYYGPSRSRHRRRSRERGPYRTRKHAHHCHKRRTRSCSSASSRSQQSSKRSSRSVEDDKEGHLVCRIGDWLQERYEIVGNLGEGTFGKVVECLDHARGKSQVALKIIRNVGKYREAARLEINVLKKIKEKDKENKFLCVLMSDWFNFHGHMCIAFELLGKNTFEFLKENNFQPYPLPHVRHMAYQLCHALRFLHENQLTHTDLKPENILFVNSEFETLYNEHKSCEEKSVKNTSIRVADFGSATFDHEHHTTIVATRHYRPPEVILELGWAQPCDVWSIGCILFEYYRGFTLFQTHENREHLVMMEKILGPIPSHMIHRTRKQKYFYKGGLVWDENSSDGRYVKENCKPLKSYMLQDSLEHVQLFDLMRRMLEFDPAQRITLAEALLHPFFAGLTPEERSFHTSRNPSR
Consider `O=C(Nc1cccc(Nc2cc(Nc3cccc(C(F)(F)F)c3)ncn2)c1)C1CC1`, for which the residual activity is 102%.

For `Cc1nc2cc3nc(-c4cccs4)cnc3cc2n1C`, the residual activity amounted to 114%.

Turning to `Oc1ccc(Nc2nc(-c3ccc(Cl)cc3)cs2)cc1`, the residual activity amounted to 92.6%.

The next assay addresses PRKCE (human) (UniProt Q02156). The description is as above. Particulars: compound 0.5 µM; ATP 10 µM.
For `O=C(Nc1cccc(Nc2cc(Nc3cccc(C(F)(F)F)c3)ncn2)c1)C1CC1`, the residual activity turned out to be 89.2%.

Regarding `Cc1nc2cc3nc(-c4cccs4)cnc3cc2n1C`, the residual activity worked out at 108%.

As to `Oc1ccc(Nc2nc(-c3ccc(Cl)cc3)cs2)cc1`, the residual activity was 99.6%.

The target in a further assay is CDK4 CCND1 (human) (UniProt P24385+P11802). The description is as above. Particulars: compound 0.5 µM; ATP 10 µM.
As to `O=C(Nc1cccc(Nc2cc(Nc3cccc(C(F)(F)F)c3)ncn2)c1)C1CC1`, the residual activity came out at 103%.

Regarding `Cc1nc2cc3nc(-c4cccs4)cnc3cc2n1C`, the residual activity came to 108%.

Regarding `Oc1ccc(Nc2nc(-c3ccc(Cl)cc3)cs2)cc1`, the residual activity was determined as 108%.

For another assay, the target named is AKT3 (human) (UniProt Q9Y243). Described as above. To be noted: compound 0.5 µM; ATP 10 µM.
`O=C(Nc1cccc(Nc2cc(Nc3cccc(C(F)(F)F)c3)ncn2)c1)C1CC1`: the residual activity turned out to be 99.4%.

As for `Cc1nc2cc3nc(-c4cccs4)cnc3cc2n1C`, the residual activity came out at 112%.

Turning to `Oc1ccc(Nc2nc(-c3ccc(Cl)cc3)cs2)cc1`, the residual activity came to 105%.

The next assay has as its target FYN (human) (UniProt P06241). The assay is described as above. Particulars: compound 0.5 µM; ATP 10 µM.
With `O=C(Nc1cccc(Nc2cc(Nc3cccc(C(F)(F)F)c3)ncn2)c1)C1CC1`, the residual activity was determined as 100%.

As for `Cc1nc2cc3nc(-c4cccs4)cnc3cc2n1C`, the residual activity came to 107%.

`Oc1ccc(Nc2nc(-c3ccc(Cl)cc3)cs2)cc1`: the residual activity stood at 102%.

The next assay deals with CDK5 CDK5R1 p35 (human) (UniProt Q00535+Q15078). The description is as above. Particulars: compound 0.5 µM; ATP 10 µM.
Regarding `O=C(Nc1cccc(Nc2cc(Nc3cccc(C(F)(F)F)c3)ncn2)c1)C1CC1`, the residual activity was found to be 99.5%.

Consider `Cc1nc2cc3nc(-c4cccs4)cnc3cc2n1C`, for which the residual activity is 107%.

Consider `Oc1ccc(Nc2nc(-c3ccc(Cl)cc3)cs2)cc1`, for which the residual activity came to 104%.

The next assay has as its target MST1R (human) (UniProt Q04912). The description is as above. Particulars: compound 0.5 µM; ATP 10 µM.
As to `O=C(Nc1cccc(Nc2cc(Nc3cccc(C(F)(F)F)c3)ncn2)c1)C1CC1`, the residual activity amounted to 107%.

Take `Cc1nc2cc3nc(-c4cccs4)cnc3cc2n1C`: the residual activity came out at 107%.

In the case of `Oc1ccc(Nc2nc(-c3ccc(Cl)cc3)cs2)cc1`, the residual activity came out at 92.5%.

The target of the next assay is IRAK4 (human) (UniProt Q9NWZ3). The assay is described as above. To be noted: compound 0.5 µM; ATP 10 µM.
As for `O=C(Nc1cccc(Nc2cc(Nc3cccc(C(F)(F)F)c3)ncn2)c1)C1CC1`, the residual activity was 104%.

As to `Cc1nc2cc3nc(-c4cccs4)cnc3cc2n1C`, the residual activity amounted to 201%.

Take `Oc1ccc(Nc2nc(-c3ccc(Cl)cc3)cs2)cc1`: the residual activity turned out to be 111%.

(Values after the kinase profiling compilation of Christmann-Franck et al. (2016).)
